The results in this text go back to US8415486B2, “IAP inhibitors” (TetraLogic Pharmaceuticals Corp., priority 2009, dated 2013).

The target of one test is T1, XIAP BIR-3 (Homo sapiens, UniProt P98170).
T1 construct: 40 nM of the respective IAP BIR3
Briefly: Fluorescence polarization binding to XIAP BIR-3 with labeled peptide AbuRPF-K(5-Fam)-NH2. The settings on record: 40 nM BIR3, 5 nM labeled peptide, reported as ranges. In outline:
(§1)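 Competitive FP: compounds titrated against 5 nM AbuRPF-K(5-Fam)-NH2 tracer and 40 nM BIR3 protein, 15 min at RT in 0.1 M potassium phosphate pH 7.5 with bovine γ-globulin. Polarization read at 485/520 nm; KD reported in ranges A <0.1, B 0.1–1, C >1–10, D >10 μM.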
(Fluorescence polarisation rises when a labelled molecule tumbles more slowly, as on binding a larger partner.)

In the next test the target is T2, cIAP-1 BIR-3 (Homo sapiens, UniProt Q13490).
T2 construct: 40 nM of the respective IAP BIR3
T2 sequence (Q13490 253-363 limits assumed): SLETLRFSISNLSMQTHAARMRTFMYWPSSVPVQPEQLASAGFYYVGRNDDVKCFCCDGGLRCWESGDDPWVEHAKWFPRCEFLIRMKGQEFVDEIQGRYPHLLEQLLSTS
Briefly: Fluorescence polarization binding to cIAP-1 BIR-3 with labeled peptide AbuRPF-K(5-Fam)-NH2. The settings on record: 40 nM BIR3, 5 nM labeled peptide, reported as ranges, read-out: KD (c-IAP-1 BIR3). The method in brief: as §1

Test [1] has as its system ovarian cancer cell line, SK-OV-3. Briefly: SK-OV-3 cell growth inhibition (MTT, 72 hrs). The class given is cell-based. Conditions: Homo sapiens, concentration giving 50% cell survival, reported as ranges. The method in brief: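 After overnight seeding in McCoy's medium with 10% FBS, SK-OV-3 cells were exposed to compound at 0.003-10 μM for 72 hrs at 37° C. MTT was then added for 3 h, with DMSO solubilization and OD read at 535 nm. CC50 is the concentration giving 50% survival relative to untreated control, reported as ranges.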

One may read the Kd as a measure of binding affinity in units of concentration. What is called CC50 is the concentration giving 50% cytotoxicity. A higher CC50 goes with lower toxicity to the cells.

T1 sequence (P98170 241-356 limits assumed): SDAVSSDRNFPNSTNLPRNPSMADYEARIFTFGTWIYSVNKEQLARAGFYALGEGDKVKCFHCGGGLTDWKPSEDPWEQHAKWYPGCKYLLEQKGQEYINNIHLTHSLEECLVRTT

As for `CN[C@@H](C)C(=O)N[C@H](C(=O)N1CC[C@@H]2[C@H]1[C@@H](COc1ccc(F)c(F)c1)CN2C(=O)C1CC1)C(C)(C)C` [Example 69, N-{1-[4-Cyclopropanecarbonyl-6-(3,4-difluoro-phenoxymethyl)-hexahydro-pyrrolo[3,2-b]pyrrole-1-carbonyl]-2,2-dimethyl-propyl}-2-methylamino propionamide], the Kd was 100 to 1000 nM at XIAP BIR-3 and below 100 nM at cIAP-1 BIR-3. Moreover, the CC50 in test [1] was below 100 nM.
With `CN[C@@H](C)C(=O)N[C@H](C(=O)N1CC[C@@H]2[C@H]1[C@@H](COc1ccc(F)c(F)c1)CN2C(=O)OC)C(C)(C)C` [Example 70, 3-(3,4-Difluoro-phenoxymethyl)-4-[3.3-dimethyl-2-(2-methylaminopropionylamino)-butyryl]-hexahydro-pyrrolo[3,2-b]pyrrole-1-carboxylic acid methyl ester], the Kd at XIAP BIR-3 and at cIAP-1 BIR-3 was below 100 nM in each case. In addition, the CC50 in test [1] is below 100 nM.
As to `CN[C@@H](C)C(=O)N[C@H](C(=O)N1CC[C@@H]2[C@H]1[C@@H](COc1ccc(F)c(F)c1)CN2C(=O)CC(C)C)C(C)(C)C` [Example 71, N-{1-[6-(3,4-Difluoro-phenoxymethyl)-4-(3-methyl-butyryl)-hexahydro-pyrrolo[3,2-b]pyrrole-1-carbonyl]-2,2-dimethyl-propyl}-2-methylamino propionamide], the Kd at XIAP BIR-3 and at cIAP-1 BIR-3 was below 100 nM each time. Besides, in test [1], the CC50 is below 100 nM.
As to `CN[C@@H](C)C(=O)N[C@H](C(=O)N1CC[C@@H]2[C@H]1[C@@H](COc1ccc(F)c(F)c1)CN2c1ncccn1)C(C)(C)C` [Example 72, N-{1-[6-(3,4-Difluoro-phenoxymethyl)-4-pyrimidin-2-yl-hexahydro-pyrrolo[3,2-b]pyrrole-1-carbonyl]-2,2-dimethylpropyl}-2-methylamino-propionamide], the results for the Kd at XIAP BIR-3 and on cIAP-1 BIR-3 were 100 to 1000 nM and below 100 nM, respectively. The CC50 in test [1] was below 100 nM.
